# Laboratory results: PMC10066365, “Nemacol is a small molecule inhibitor of C. elegans vesicular acetylcholine transporter with anthelmintic potential” (Nature Communications, 2023)
# Values joined by “and” are separate entries in the source; they are usually repeats but may differ in a detail not shown here. Equal entries are not always repeated.
# Test system: C. elegans
# Assay: C. elegans motor phenotype scoring on solid media (Punc/jerky-unc, coiled, paralyzed), wild-type young adults
# Format: in vivo, Caenorhabditis elegans
# Conditions: for P (number of animals) / Punc (number of animals) / C1 (number of animals) / C2 (number of animals) / Fraction Coiled / Fraction Paralyzed / Fraction Punc / NP (number of animals) / Next Day Animals alive (moving fine): single replicate; for AVERAGES Fraction Coiled / AVERAGES Fraction Paralyzed / AVERAGES Fraction Punc: average of 3 replicates
# [1] = 60uM, one hour, young adults, 20 animals per trial, single replicate counts
compound,measurement,setting,value
O=[N+]([O-])c1ccc(N2CCN(CC3CC=CCC3)CC2)cc1 (stereo not shown) [Nemacol-4],P (number of animals),"30 μM, 90 min",3 and 0
same,Punc (number of animals),"30 μM, 90 min",13 and 9 and 14
same,AVERAGES Fraction Coiled,"30 μM, 120 min",0.0741
same,AVERAGES Fraction Paralyzed,"30 μM, 120 min",0.0185
same,AVERAGES Fraction Punc,"30 μM, 120 min",0.5
same,C1 (number of animals),"30 μM, 120 min",2 and 1
same,C2 (number of animals),"30 μM, 120 min",0
same,Fraction Coiled,"30 μM, 120 min",0.111 and 0.0556
same,Fraction Paralyzed,"30 μM, 120 min",0.0556 and 0.0
same,Fraction Punc,"30 μM, 120 min",0.556 and 0.5
same,NP (number of animals),"30 μM, 120 min",5 and 8
same,P (number of animals),"30 μM, 120 min",1 and 0
same,Punc (number of animals),"30 μM, 120 min",10 and 9
same,AVERAGES Fraction Coiled,"30 μM, 240 min",0.0
same,AVERAGES Fraction Paralyzed,"30 μM, 240 min",0.0
same,AVERAGES Fraction Punc,"30 μM, 240 min",0.333
same,C1 (number of animals),"30 μM, 240 min",0
same,C2 (number of animals),"30 μM, 240 min",0
same,Fraction Coiled,"30 μM, 240 min",0.0
same,Fraction Paralyzed,"30 μM, 240 min",0.0
same,Fraction Punc,"30 μM, 240 min",0.333 and 0.222 and 0.444
same,NP (number of animals),"30 μM, 240 min",12 and 14 and 10
same,P (number of animals),"30 μM, 240 min",0
same,Punc (number of animals),"30 μM, 240 min",6 and 4 and 8
same,AVERAGES Fraction Coiled,"30 μM, 360 min",0.0
same,AVERAGES Fraction Paralyzed,"30 μM, 360 min",0.0
same,AVERAGES Fraction Punc,"30 μM, 360 min",0.111
same,C1 (number of animals),"30 μM, 360 min",0
same,C2 (number of animals),"30 μM, 360 min",0
same,Fraction Coiled,"30 μM, 360 min",0.0
same,Fraction Paralyzed,"30 μM, 360 min",0.0
same,Fraction Punc,"30 μM, 360 min",0.0556 and 0.278 and 0.0
same,NP (number of animals),"30 μM, 360 min",17 and 13 and 18
same,P (number of animals),"30 μM, 360 min",0
same,Punc (number of animals),"30 μM, 360 min",1 and 5 and 0
same,Next Day Animals alive (moving fine),30 μM,"alive, recovered"
same,AVERAGES Fraction Coiled,"60 μM, 30 min",0.111
same,AVERAGES Fraction Paralyzed,"60 μM, 30 min",0.0
same,AVERAGES Fraction Punc,"60 μM, 30 min",0.8
same,C1 (number of animals),"60 μM, 30 min",1 and 0
same,C2 (number of animals),"60 μM, 30 min",2 and 1
same,Fraction Coiled,"60 μM, 30 min",0.167 and 0.0556 and 0.111
same,Fraction Paralyzed,"60 μM, 30 min",0.0
same,Fraction Punc,"60 μM, 30 min",0.7 and 0.9
same,NP (number of animals),"60 μM, 30 min",2 and 4 and 0
same,P (number of animals),"60 μM, 30 min",0
same,Punc (number of animals),"60 μM, 30 min",13 and 16
same,AVERAGES Fraction Coiled,"60 μM, 60 min",0.149
same,AVERAGES Fraction Paralyzed,"60 μM, 60 min",0.037
same,AVERAGES Fraction Punc,"60 μM, 60 min",0.7
same,C1 (number of animals),"60 μM, 60 min",2 and 0 and 1
same,C2 (number of animals),"60 μM, 60 min",2 and 1
same,Fraction Coiled,"60 μM, 60 min",0.222 and 0.0588 and 0.167
same,Fraction Paralyzed,"60 μM, 60 min",0.111 and 0.0
same,Fraction Punc,"60 μM, 60 min",0.667 and 0.7 and 0.8
same,NP (number of animals),"60 μM, 60 min",0 and 4
same,P (number of animals),"60 μM, 60 min",2 and 0
same,Punc (number of animals),"60 μM, 60 min",12 and 15
same,AVERAGES Fraction Coiled,"60 μM, 90 min",0.148
same,AVERAGES Fraction Paralyzed,"60 μM, 90 min",0.111
same,AVERAGES Fraction Punc,"60 μM, 90 min",0.741
same,C1 (number of animals),"60 μM, 90 min",3 and 1 and 0
same,C2 (number of animals),"60 μM, 90 min",1 and 2
same,Fraction Coiled,"60 μM, 90 min",0.222 and 0.167 and 0.0556
same,Fraction Paralyzed,"60 μM, 90 min",0.222 and 0.0556
same,Fraction Punc,"60 μM, 90 min",0.556 and 0.8 and 0.9
same,NP (number of animals),"60 μM, 90 min",0
same,P (number of animals),"60 μM, 90 min",4 and 1
same,Punc (number of animals),"60 μM, 90 min",10 and 14 and 16
same,AVERAGES Fraction Coiled,"60 μM, 120 min",0.111
same,AVERAGES Fraction Paralyzed,"60 μM, 120 min",0.037
same,AVERAGES Fraction Punc,"60 μM, 120 min",0.8
same,C1 (number of animals),"60 μM, 120 min",1 and 0
same,C2 (number of animals),"60 μM, 120 min",1 and 2
same,Fraction Coiled,"60 μM, 120 min",0.111
same,Fraction Paralyzed,"60 μM, 120 min",0.0556 and 0.0
same,Fraction Punc,"60 μM, 120 min",0.7 and 0.9 and 0.8
same,NP (number of animals),"60 μM, 120 min",2 and 0
same,P (number of animals),"60 μM, 120 min",1 and 0
same,Punc (number of animals),"60 μM, 120 min",13 and 16 and 15
same,AVERAGES Fraction Coiled,"60 μM, 240 min",0.0
same,AVERAGES Fraction Paralyzed,"60 μM, 240 min",0.037
same,AVERAGES Fraction Punc,"60 μM, 240 min",0.5
same,C1 (number of animals),"60 μM, 240 min",0
same,C2 (number of animals),"60 μM, 240 min",0
same,Fraction Coiled,"60 μM, 240 min",0.0
same,Fraction Paralyzed,"60 μM, 240 min",0.0 and 0.111
same,Fraction Punc,"60 μM, 240 min",0.4 and 0.333 and 0.7
same,NP (number of animals),"60 μM, 240 min",11 and 12 and 3
same,P (number of animals),"60 μM, 240 min",0 and 2
same,Punc (number of animals),"60 μM, 240 min",7 and 6 and 13
same,AVERAGES Fraction Coiled,"60 μM, 360 min",0.0
same,AVERAGES Fraction Paralyzed,"60 μM, 360 min",0.0
same,AVERAGES Fraction Punc,"60 μM, 360 min",0.37
same,C1 (number of animals),"60 μM, 360 min",0
same,C2 (number of animals),"60 μM, 360 min",0
same,Fraction Coiled,"60 μM, 360 min",0.0
same,Fraction Paralyzed,"60 μM, 360 min",0.0
same,Fraction Punc,"60 μM, 360 min",0.333 and 0.444
same,NP (number of animals),"60 μM, 360 min",12 and 10
same,P (number of animals),"60 μM, 360 min",0
same,Punc (number of animals),"60 μM, 360 min",6 and 8
same,Next Day Animals alive (moving fine),60 μM,"alive, recovered"
same,"any phene, mean % fraction of young adults exhibiting any phenotype (coiled, jerky-Unc or paralyzed)","60uM, one hour, mean of three biological replicates",94.1667%
same,atypical locomotion (number of animals),[1],9 and 8 and 13 and 10 and 2 and 3
same,coiled (number of animals),[1],8 and 7 and 3 and 1 and 4 and 5
same,no phene (number of animals),[1],0 and 3 and 4
same,paralyzed (number of animals),[1],3 and 5 and 1 and 14 and 12
same,EC50,"Caenorhabditis elegans, 1 h, Fig. 1, dose-response at 60 min, wild-type young adults, +/- 95% CI, read-out: EC50",15 ± 2.3 µM
